“Also recorded” adds a separate entry of the source. Where no end group is shown, it is not given here.
Columns and labels:
Type in all cases: cell-based, Clostridium difficile
[1] = tested on: C. difficile spores; assay: Spore germination experiment repeated with wash-out of the peptides after incubation; conditions: peptides washed out at end of incubation, medium free of peptides
Description: (§1) The effects of antimicrobial peptides on C. difficile spores were investigated by first enriching a bacterial suspension with spores so that at least 70% spores were present. The spore suspension was incubated for 60 minutes with various defensins (HBD1, HBD2, HBD3) and the cathelicidin LL37 (recombinant defensins: Peptanova Sandhausen, HBD1 order No. 4337; HBD2; 4338, HBD3 4382/recombinant LL37: Innovagen Lund Sweden, order No. SP-LL-37-1). Thereafter, aliquots of the samples were plated out on Columbia blood agar and incubated anaerobically for at least 4 days. The germinated spores in an untreated control and the preparations containing antimicrobial peptides were counted.
In order to able to establish with certainty whether either germinating bacteria are rapidly killed by the presence of antimicrobial peptides in the medium or the spores are in fact prevented from germinating, the experiment was repeated, but at the end of the incubation time, the peptides were washed out and the medium was free of peptides.

[2] = tested on: C. difficile spores; assay: Incubation of C. difficile spore suspension with antimicrobial peptides, plating and counting of germinated spores; conditions: spore suspension (at least 70% spores) incubated 60 minutes with peptide; plated on Columbia blood agar, anaerobic at least 4 days
Description: as §1

[3] = tested on: C. difficile spores; assay: Electron microscopy of C. difficile spores incubated with gold-labeled HBD3 peptides (FIGS. 2 and 3)
[4] = tested on: C. difficile spores; assay: Spore germination after incubation, wash-out and heat killing of residual vegetative cells (FIG. 1); conditions: for decrease in germinating spores: incubation, wash-out, heat 61° C., 30 min, as a function of peptide concentration
Description: as §1
In further experiments, the inventers wanted to make the unambiguous assignment that resultant bacterial colonies can be attributed with certainty to the germinated spores and not to the steady growth of residual vegetative cells. To this end, incubation and wash-out were followed by killing the residual vegetative cells using heat (61° C., 30 min). This heat treatment kills only the vegetative cells, but not the spores.

Row | Substance | inhibitory effect on spore germination despite wash-out [1] | germinated spores in comparison with the controls [2] | structural destruction of the spores [3] | penetration into the spores ([3]; gold-labeled HBD3 peptides) | number of germinating spores ([4]; 2.5 μg/mL peptide, after wash-out and heat treatment) | efficacy compared with the other effective peptide ([4]; in lower concentrations, after wash-out and heat treatment) | decrease in germinating spores [4] | difference between the effect of LL37 and HBD3 ([4]; at larger concentrations (10 μg/mL)) | difference between the effect of LL37 and HBD3 ([4]; at low concentrations)
1 | human beta-defensin-3 (GIINTLQKYYCRVRGGRCAVLSCLPKEEQIGKCSTRGRKCCRRKK; ends and bridges not checked; cysteine pairing not given here; UniProt P81534 23-67, looked up) [HBD3, Human beta-defensin 3, protein composed of 45 amino acids, net charge +11; recombinant, Peptanova order No. 4382] | maintained | significantly fewer germinated spores | destroyed structurally; also recorded: destroys parts of the spore structure | able to penetrate into the spores; also recorded: penetrates into the exosporium | greatly lowering the number of germinating spores | somewhat higher efficacy | concentration-dependent decrease in germinating spores | – | –
2 | cathelicidin LL-37 [LL37] | maintained | significantly fewer germinated spores | – | – | – | – | concentration-dependent decrease in germinating spores | hardly noticeable | distinct difference
